Patent US20250295639A1, “METHODS FOR TREATING HEART DISEASES” (Cytokinetics, Incorporated, priority 2024, published 2025)
“And” between values parts separate entries of the source, which are not always exact repeats. Equal entries are not always repeated.

Experiments:
[1] = system: patients with symptomatic oHCM; assay: SEQUOIA-HCM phase 3 trial: echocardiography (LVOT gradients, cardiac structure and function); type: in vivo, human; settings: for LA Volume Index / LV Ejection Fraction / LV Mass Index / LV Maximal Wall Thickness: Non-CMR Cohort N = 225 (Aficamten N = 117)
Source text: The following example describes a phase 3, multi-center, randomized, double-blind, placebo-controlled trial to evaluate the efficacy and safety of aficamten in adults with symptomatic hypertrophic cardiomyopathy and left ventricular outflow tract obstruction. This trial evaluated the effects of treatment with aficamten over a 24-week period on cardiopulmonary exercise capacity and health status in patients with symptomatic oHCM. This trial was intended to establish the efficacy and safety of aficamten with respect to improvements in exercise capacity and patient symptoms, as well as reduction in left ventricular outflow tract gradient (LVOT-G) in patients with oHCM.
This was a Phase 3 randomized, placebo-controlled, double-blind, multi-center trial in patients with symptomatic oHCM. Approximately 270 eligible patients were to be randomized in a 1:1 ratio to receive aficamten or placebo. Doses of 5, 10, 15, or 20 mg or matching placebo were administered in an escalating manner using echocardiography to guide dose titration. Randomization was stratified by use of beta blockers and CPET exercise modality.
The trial comprised three periods. The screening period was up to 6 weeks in duration. The double-blind placebo-controlled treatment period lasted 24 weeks. Following the final dose of aficamten, there was a 4-week safety follow-up period. Aficamten was administered orally once daily. During the initial six weeks of the treatment period, aficamten doses were individually titrated at Weeks 2, 4, and 6 using echocardiography. […] An echocardiogram was performed at each subsequent visit during the trial and the dose down-titrated if necessary. The primary endpoint of pVO2 was measured by CPET at screening and at end of treatment (Week 24). If applicable, patients continued taking background HCM medications consistent with regional clinical practice guidelines during the trial.
Echocardiography. Echocardiography was done during screening and prior to dosing on Day 1. Echocardiography was also performed 2 hours after dosing in the clinic on Weeks 2, 4, 6, 8, 12, 16, 20, 24, and 28.
Certified sonographers performed echocardiography using standard high-quality, high-fidelity machines. Whenever possible, the same sonographer performed all studies for a single patient. Echocardiograms were performed after the patient had been resting in a supine position for at least 10 minutes and in accordance with the echocardiography manual. Instructions for the performance of the Valsalva maneuver and imaging the LVOT-G were also included in the echocardiography manual.
Echocardiographic parameters measured at least included the left ventricular parameters (resting left ventricular outflow tract pressure gradient (LVOT-G), post-Valsalva LVOT-G, LVEF, LVFS, global longitudinal strain (GLS), left ventricular end diastolic diameter (LVEDD), left ventricular end diastolic volume (LVEDV), left ventricular end systolic diameter (LVESD), left ventricular end systolic volume (LVESV), left ventricular cardiac output (LVCO), LV Stroke Volume, LVOT velocity time integral (VTI), interventricular septum thickness (IVST), isovolumic contraction time (IVCT), IVRT, E/E, ratio (septal and lateral), and left atrial volume (LAV)) in addition to right heart function metrics detailed in the echocardiography protocol.
All echocardiograms (including unscheduled) were sent to the core laboratory for interpretation. On-site interpretation of LVEF and LVOT-G were used for dose escalation and reduction decisions via IWRS. The core laboratory quantification of the echocardiograms was used for all statistical analyses.
Baseline values are presented as mean±SD. Placebo corrected differences are presented as mean±95% CI and adjusted for treatment and stratification by beta-blockers and exercise mode (bicycle vs treadmill). […]

[2] = system: patients with symptomatic oHCM; parameters: species or system human; settings: in vivo
Experimental: Patients enrolled in this trial were required to have an LVEF≥60% prior to randomization, as confirmed by the central echocardiography laboratory. […] Dose escalation was performed on an individualized basis only if the following criteria were met: both post-Valsalva LVOT-G≥30 mmHg and biplane LVEF≥55%. Importantly, in contrast to CY 6021, the lower limit of LVEF for dose escalations was increased from 50% to 55% to provide a safety margin from the threshold of LVEF (<50%) that would trigger dose reduction. If the LVEF was <50% at any time, the dose of aficamten was down-titrated, and if the LVEF is <40% at any time, aficamten was temporarily interrupted.
To evaluate the safety and tolerability profile of aficamten in patients with symptomatic oHCM, the following were recorded: (1) incidence of reported major adverse cardiac events (cardiovascular [CV] death, cardiac arrest, non-fatal stroke, non-fatal myocardial infarction, CV hospitalization); (2) incidence of new onset persistent atrial fibrillation; (3) incidence of appropriate implantable cardiac defibrillator (ICD) discharges and aborted sudden cardiac death; (4) incidence of left ventricular ejection fraction (LVEF)<50%; and (5) incidence of treatment emergent adverse events.

[3] = Echo Measurements, Non-CMR Cohort N = 225, vs placebo
[4] = Treatment (Week 24), listed as Aficamten

CCc1nc(-c2ccc3c(c2)CC[C@H]3NC(=O)c2cnn(C)c2)no1 [aficamten, (R)—N-(5-(5-ethyl-1,2,4-oxadiazol-3-yl)-2,3-dihydro-1H-inden-1-yl)-1-methyl-1H-pyrazole-4-carboxamide]
patients of the SAM-resolution group reverting to baseline mitral valve SAM after washout ([1]; 50/61): 82%
patients with complete resolution of mitral valve SAM ([1]; 61/117, 24 weeks treatment): 52%
LA Volume Index ([1]; Echo Measurements, Baseline): 40 ± 13 mL/m^2
LV Ejection Fraction ([1]; Echo Measurements, Baseline): 74.8 ± 5.6%
LV Mass Index ([1]; Echo Measurements, Baseline): 131 ± 33 g/m^2
LV Maximal Wall Thickness ([1]; Echo Measurements, Baseline): 20.7 ± 3.0 mm
LA Volume Index ([1]; Echo Measurements, Week 24): 37 ± 11 mL/m^2
LV Ejection Fraction ([1]; Echo Measurements, Week 24): 67.8 ± 7.4%
LV Mass Index ([1]; Echo Measurements, Week 24): 126 ± 33 g/m^2
LV Maximal Wall Thickness ([1]; Echo Measurements, Week 24): 19.2 ± 3.2 mm
LA Volume Index, Treatment Effect [1, 3]: −5 mL/m^2
LV Ejection Fraction, Treatment Effect [1, 3]: −5.3%
LV Mass Index, Treatment Effect [1, 3]: −13 g/m^2
LV Maximal Wall Thickness, Treatment Effect [1, 3]: −1.2 mm
Inferolateral wall: placebo-corrected treatment difference (95% CI) ([1]; Treatment (Week 24)): −0.8 (−1.3, −0.3) mm
Interventricular septal wall: placebo-corrected treatment difference (95% CI) ([1]; Treatment (Week 24)): −1.0 (−1.6, −0.3) mm
LA volume index: placebo-corrected treatment difference (95% CI) ([1]; Treatment (Week 24)): −3.8 ml/m2
LA width: placebo-corrected treatment difference (95% CI) ([1]; Treatment (Week 24)): −2.7 (−3.8, −1.7) mm
LV Fractional Shortening: placebo-corrected treatment difference (95% CI) ([1]; Treatment (Week 24)): −4 (−7, −2) %
LV end diastolic dimension: placebo-corrected treatment difference (95% CI) ([1]; Treatment (Week 24)): −0.3 (−1.1, 0.5) mm
LV end diastolic volume index: placebo-corrected treatment difference (95% CI) ([1]; Treatment (Week 24)): −0.2 (−1.5, 1.2) ml/m2
LV end systolic dimension: placebo-corrected treatment difference (95% CI) ([1]; Treatment (Week 24)): +1.6 (0.7, 2.4) mm
LV end systolic volume index: placebo-corrected treatment difference (95% CI) ([1]; Treatment (Week 24)): +1.7 ml/m2
LV mass index: placebo-corrected treatment difference (95% CI) ([1]; Treatment (Week 24)): −12.2 (−18.0, −6.5) g/m2
LVOT Gradient, Valsalva: placebo-corrected treatment difference (95% CI) ([1]; Treatment (Week 24)): −50 mmHg
LVOT Gradient, rest: placebo-corrected treatment difference (95% CI) ([1]; Treatment (Week 24)): −40 mmHg
Lateral E/e′: placebo-corrected treatment difference (95% CI) ([1]; Treatment (Week 24)): −3.9
Lateral e′ velocity: placebo-corrected treatment difference (95% CI) ([1]; Treatment (Week 24)): +1.2 cm/s
Max wall thickness: placebo-corrected treatment difference (95% CI) ([1]; Treatment (Week 24)): −1.2 (−1.8, −0.6) mm
Peak A wave velocity: placebo-corrected treatment difference (95% CI) ([1]; Treatment (Week 24)): −2.4 (−6.3, 1.5) cm/s
Peak E wave velocity: placebo-corrected treatment difference (95% CI) ([1]; Treatment (Week 24)): −7.5 (−11.7, −3.2) cm/s
RV s′ velocity: placebo-corrected treatment difference (95% CI) ([1]; Treatment (Week 24)): −1.4(−2.0, −0.9) cm/s
Septal E/e′: placebo-corrected treatment difference (95% CI) ([1]; Treatment (Week 24)): −3.6
Septal e′ velocity: placebo-corrected treatment difference (95% CI) ([1]; Treatment (Week 24)): +0.5 cm/s
TAPSE: placebo-corrected treatment difference (95% CI) ([1]; Treatment (Week 24)): −2.1 (−3.2,−1.1) mm
LA volume index: placebo-corrected treatment difference (95% CI) [1, 4]: −3.8 (−5.5, −2.2) ml/m2
LV Ejection Fraction: placebo-corrected treatment difference (95% CI) [1, 4]: −4.8% and −5 (−6, −3) %
LV end systolic volume index: placebo-corrected treatment difference (95% CI) [1, 4]: +1.7 (1.0, 2.4) ml/m2
LV global circumferential strain (absolute): placebo-corrected treatment difference (95% CI) [1, 4]: −3.7% and −3.7 (−5.6, −1.8) %
LVOT Gradient, Valsalva: placebo-corrected treatment difference (95% CI) [1, 4]: −50 (−57, −44) mmHg
LVOT Gradient, rest: placebo-corrected treatment difference (95% CI) [1, 4]: −40 (−46, −34) mmHg
Lateral E/e′: placebo-corrected treatment difference (95% CI) [1, 4]: −3.9 (−5.0, −2.8)
Lateral e′ velocity: placebo-corrected treatment difference (95% CI) [1, 4]: 1.2 (0.7, 1.6) cm/s
Septal E/e′: placebo-corrected treatment difference (95% CI) [1, 4]: −3.6 (−4.8, −2.5)
Septal e′ velocity: placebo-corrected treatment difference (95% CI) [1, 4]: 0.5 (0.2, 0.8) cm/s
Inferolateral wall: placebo-corrected treatment difference (95% CI) ([1]; Washout (Week 28)): −0.2 (−0.8, 0.3) mm
Interventricular septal wall: placebo-corrected treatment difference (95% CI) ([1]; Washout (Week 28)): −0.3 (−1.0, 0.4) mm
LA volume index: placebo-corrected treatment difference (95% CI) ([1]; Washout (Week 28)): −3.0 (−4.9, −1.0) ml/m2
LA width: placebo-corrected treatment difference (95% CI) ([1]; Washout (Week 28)): −0.8 (−1.8, 0.3) mm
LV Ejection Fraction: placebo-corrected treatment difference (95% CI) ([1]; Washout (Week 28)): −1 (−2, 1) %
LV Fractional Shortening: placebo-corrected treatment difference (95% CI) ([1]; Washout (Week 28)): −1 (−3, 2) %
LV end diastolic dimension: placebo-corrected treatment difference (95% CI) ([1]; Washout (Week 28)): −0.7 (−1.6, 0.2) mm
LV end diastolic volume index: placebo-corrected treatment difference (95% CI) ([1]; Washout (Week 28)): −1.2 (−2.5, 0.1) ml/m2
LV end systolic dimension: placebo-corrected treatment difference (95% CI) ([1]; Washout (Week 28)): −0.2 (−1.1, 0.8) mm
LV end systolic volume index: placebo-corrected treatment difference (95% CI) ([1]; Washout (Week 28)): −0.1 (−0.7, 0.5) ml/m2
LV global circumferential strain (absolute): placebo-corrected treatment difference (95% CI) ([1]; Washout (Week 28)): −0.8 (−2.5, 0.9) %
LV global longitudinal strain (absolute): placebo-corrected treatment difference (95% CI) ([1]; Washout (Week 28)): −0.1 (−0.6, 0.5) %
LV mass index: placebo-corrected treatment difference (95% CI) ([1]; Washout (Week 28)): −3.7 (−10.2, 2.8) g/m2
LVOT Gradient, Valsalva: placebo-corrected treatment difference (95% CI) ([1]; Washout (Week 28)): −1 (−8, 6) mmHg
LVOT Gradient, rest: placebo-corrected treatment difference (95% CI) ([1]; Washout (Week 28)): −1 (−6, 7) mmHg
Lateral E/e′: placebo-corrected treatment difference (95% CI) ([1]; Washout (Week 28)): −0.2 (−1.6, 1.2)
Lateral e′ velocity: placebo-corrected treatment difference (95% CI) ([1]; Washout (Week 28)): −0.2 (−0.6, 0.3) cm/s
Peak A wave velocity: placebo-corrected treatment difference (95% CI) ([1]; Washout (Week 28)): 3.2 (−0.5, 6.9) cm/s
Peak E wave velocity: placebo-corrected treatment difference (95% CI) ([1]; Washout (Week 28)): −1.6 (−5.8, 2.7) cm/s
RV s′ velocity: placebo-corrected treatment difference (95% CI) ([1]; Washout (Week 28)): +0.3 (−0.2, 0.9) cm/s
Septal E/e′: placebo-corrected treatment difference (95% CI) ([1]; Washout (Week 28)): −0.6 (−1.7, 0.6)
Septal e′ velocity: placebo-corrected treatment difference (95% CI) ([1]; Washout (Week 28)): −0.0 (−0.3, 0.2) cm/s
TAPSE: placebo-corrected treatment difference (95% CI) ([1]; Washout (Week 28)): +0.8 (−0.3, 1.9) mm
rest LV outflow tract gradient on treatment ([1]; end of treatment period, from 55±27 at baseline): 20±17 mmHg
Valsalva LV outflow tract gradient on treatment ([1]; end of treatment period, from 83±32 at baseline): 35±25 mmHg
reduction of Valsalva LVOT gradient compared to baseline ([1]; week 2): 25%
reduction of rest LVOT gradient compared to baseline ([1]; week 2): 31%
instances of per protocol down-titration [2]: no instances
